Results published in the supplement of paper PMC10307832.

What was measured:
Assay in all cases: relative viability (nuclei count vs DMSO), 5 days (fraction); higher = more cells survive
[1] = compound: C1COCCN1C2=NC(=NC3=C2OC4=C3C=CC=N4)C5=CC(=CC=C5)NC(=O)C6=CN=C(C=C6)N + Cc1nc(Nc2ncc(C(=O)Nc3c(C)cccc3Cl)s2)cc(N2CCN(CCO)CC2)n1 [Dasatinib] (partner 0.075 µM)
Summary of the method: (§1)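 Medians of duplicate plates are given as relative viability. That measure is the nuclei count in treated wells divided by the count in vehicle wells. Counts were taken on 4× images of lung cancer cell lines in 1536-well plates, 5 days after pin-tool dosing the day after seeding with one drug alone or a fixed anchor-drug dose plus five library-drug doses (not always all listed) in √10 steps.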

[2] = compound: C1COCCN1C2=NC(=NC3=C2OC4=C3C=CC=N4)C5=CC(=CC=C5)NC(=O)C6=CN=C(C=C6)N + NC(=O)Nc1cc(-c2cccc(F)c2)sc1C(=O)N[C@H]1CCCNC1 [AZD7762] (partner 0.2 µM)
Summary of the method: as §1

SGI-1776 + AZD7762 = compound: CN1CCC(CNc2ccc3ncc(-c4cccc(OC(F)(F)F)c4)n3n2)CC1 [SGI-1776] + NC(=O)Nc1cc(-c2cccc(F)c2)sc1C(=O)N[C@H]1CCCNC1 [AZD7762] (partner 0.2 µM)
Summary of the method: as §1

Entinostat + Olaparib = compound: Nc1ccccc1NC(=O)c1ccc(CNC(=O)OCc2cccnc2)cc1 [Entinostat] + O=C(c1cc(Cc2n[nH]c(=O)c3ccccc23)ccc1F)N1CCN(C(=O)C2CC2)CC1 [Olaparib] (partner 8 µM)
Summary of the method: as §1

Cell Line	relative viability ([1]; first compound 0.02 µM)	relative viability ([1]; first compound 0.06325 µM)	relative viability ([1]; first compound 0.2 µM)	relative viability ([1]; first compound 0.6325 µM)	relative viability ([1]; first compound 2 µM)	relative viability ([2]; first compound 0.02 µM)	relative viability ([2]; first compound 0.06325 µM)	relative viability ([2]; first compound 0.2 µM)	relative viability ([2]; first compound 0.6325 µM)	relative viability ([2]; first compound 2 µM)	relative viability (SGI-1776 + AZD7762; first compound 0.08 µM)	relative viability (SGI-1776 + AZD7762; first compound 0.8 µM)	relative viability (SGI-1776 + AZD7762; first compound 2.53 µM)	relative viability (SGI-1776 + AZD7762; first compound 8 µM)	relative viability (Entinostat + Olaparib; first compound 0.02 µM)	relative viability (Entinostat + Olaparib; first compound 0.06325 µM)	relative viability (Entinostat + Olaparib; first compound 0.2 µM)	relative viability (Entinostat + Olaparib; first compound 0.6325 µM)	relative viability (Entinostat + Olaparib; first compound 2 µM)
NCI-H2170	0.561	0.507	0.551	0.538	0.618	0.914	1.05	0.798	0.837	0.488	0.839	0.966	0.874	0.828	0.565	0.557	0.515	0.341	0.215
HCC-366	0.647	0.745	0.691	0.576	0.26	0.329	0.419	0.213	0.216	0.174	0.248	0.263	0.298	0.26	0.343	0.311	0.212	0.132	0.0516
NCI-H2405	0.209	0.229	0.223	0.215	0.213	0.829	0.724	0.716	0.673	0.483	0.706	0.728	0.57	0.608	0.843	0.895	0.861	0.72	0.623
COR-L 105	0.307	0.363	0.22	0.308	0.284										0.683	0.825	0.773	0.483	0.407
201T	0.55	0.558	0.606	0.57	0.579	0.655	0.626	0.603	0.509	0.534	0.581	0.604	0.644	0.657	0.838	0.775	0.694	0.489	0.459
NCI-H2228	0.647	0.487	0.439	0.33	0.246										0.633	0.749	0.613	0.254	0.176
LCLC-103H	0.433	0.468	0.479	0.514	0.344	0.809	0.784	0.8	0.81	0.631	0.9	0.776	0.675	0.729	0.748	0.738	0.684	0.528	0.447
NCI-H2087	0.942	0.913	0.799	0.845	0.441	1.35	1.44	1.32	1.17	0.647	1.29	1.36	1.44	1.27	0.498	0.554	0.511	0.329	0.206
NCI-H358		0.134	0.109	0.152	0.15	0.442	0.475	0.443	0.465	0.409	0.465	0.467	0.456	0.348	0.574	0.649	0.593	0.342	0.172
